Earlier results on 1 compound are cited in patent publication US5998416A, “Piperazine, piperidine and tetrahydropyridine derivatives as 5-HT receptor agonists” (Merck Sharp & Dohme Ltd., priority 1996, dated 1999).

The conditions of this series: therapeutic doses.

For the compound `CNS(=O)(=O)Cc1ccc2[nH]cc(CCN(C)C)c2c1` [sumatriptan], the “adverse cardiovascular events in humans” value was “certain adverse cardiovascular events”.
